Measurements as given in the CheMixHub viscosity set.

Experiment: xn = mol fraction of the nth substance listed

OC1CCCC1 + OCCO
viscosity [mPa·s], 100 kPa
Conditions	293.15 K	298.15 K	303.15 K	308.15 K	313.15 K	318.15 K
x1 = 0.0096	20.05	16.39	13.54	11.2	9.449	7.776
x1 = 0.0395	19.37	15.85	13.05	10.76	9.1	7.468
x1 = 0.0579	19.05	15.56	12.79	10.56	8.919	7.326
x1 = 0.0879	18.56	15.14	12.41	10.23	8.646	7.096
x1 = 0.1	18.37	14.97	12.3	10.1	8.562	7.014
x1 = 0.1962	17.2	13.96	11.39	9.382	7.926	6.505
x1 = 0.305	16.2	13.09	10.65	8.716	7.366	6.078
x1 = 0.3969	15.4	12.54	10.2	8.282	7.016	5.819
x1 = 0.4993	14.8	12.02	9.751	7.927	6.692	5.617
x1 = 0.5877	14.3	11.69	9.42	7.677	6.437	5.439
x1 = 0.6993	13.9	11.33	8.99	7.319	6.14	5.219
x1 = 0.797	13.56	11.01	8.69	7.01	5.861	5.05
x1 = 0.8977	13.15	10.62	8.345	6.737	5.625	4.89

COC(C)(C)C + CCCCO
viscosity [mPa·s], 101 kPa
Conditions	x1 = 0.1006	x1 = 0.102	x1 = 0.2	x1 = 0.2998	x1 = 0.3995	x1 = 0.5111	x1 = 0.6008	x1 = 0.6996	x1 = 0.7994	x1 = 0.9005
298.15 K	–	1.94	1.48	1.14	0.902	0.719	0.613	0.529	0.46	0.401
303.15 K	1.695	–	–	–	–	–	–	–	–	–
